Reference: patent US11760722B2 (priority 2022, dated 2023)
Read-outs that look alike come from different tables or passages of the source.

Assays:
COVID-19 WT Mpro = biological target: T1, COVID-19 WT Mpro (Severe acute respiratory syndrome coronavirus 2, UniProt P0DTD1); assay: biochemical; details: WT Mpro 25 nM, substrate 25 μM, 30 min pre-incubation; several values in a cell = repeat determinations
T1 construct: The C-His6-tagged COVID-19 WT Mpro (NC_045512); His6 (C); host or cells: E. coli

SARS-CoV-2 replicon = assay: microbe, parasite or virus in culture; type: cell-based; details: read-out: Replicon EC50
[1] = tested on: human coronavirus (HCoV) 229E; assay: microbe, parasite or virus in culture; type: cell-based, human coronavirus 229E; details: MRCS cells, HCoV 229E, 3 days, CellTiter Glo, read-out: 229E CPE EC50
Procedure: Test compounds were provided by the sponsor. Reference compound remdesivir was provided by WuXi AppTec. Compounds were assayed at 8 concentrations (to be defined by sponsor), in duplicate wells.
MRCS cells were obtained from the ATCC, and maintained in the Minimum Essential Medium supplemented with 10% FBS, 1% L-glutamine, 1% NEAA and 1% penicillin-streptomycin. Minimum Essential Medium supplemented with 5% FBS, 1% L-glutamine, 1% NEAA and 1% penicillin-streptomycin was used as the assay medium.
Cells were seeded in 96 well plates, in 100 μl per well of assay medium, and cultured at 37° C. and 5% CO2 overnight. Next day, test compound was diluted with assay medium and then added into the cells, 50 μl per well. Then 50 μl per well of assay medium diluted virus was added. The final volume of the cell culture was 200 μl per well. […] The CPE were measured by CellTiter Glo following the manufacturer's manual. The antiviral activity of compounds was calculated based on the protection of the virus-induced CPE at each concentration normalized by the virus control.
EC50 and CC50 values were calculated using the GraphPad Prism software using the nonlinear regression model of log(inhibitor) vs. response—Variable slope (four parameters).

[2] = Severe acute respiratory syndrome coronavirus 2, Huh-7, 24 h
[3] = unidentified human coronavirus, 72 h

Compound: CC1(C)[C@@H]2[C@@H](C(=O)N[C@H](C#N)C[C@@H]3CCNC3=O)N(C(=O)[C@@H]3CCCN3C(=O)C(F)(F)F)C[C@@H]21 [Compound 5]
- IC50 (COVID-19 WT Mpro): > 30000 nM
- EC50 (SARS-CoV-2 replicon; [2]): > 30000 nM

Compound: CC1(C)[C@@H]2[C@@H](C(=O)N[C@H](C#N)C[C@@H]3CCNC3=O)N(C(=O)[C@@H]3CCN3C(=O)C(F)(F)F)C[C@@H]21 [Compound 6]
- IC50 (COVID-19 WT Mpro): 17300 nM
- EC50 (SARS-CoV-2 replicon; [2]): > 30000 nM

Compound: COC(=O)N(C(=O)C(F)(F)F)[C@H](C(=O)N1C[C@H]2[C@@H]([C@H]1C(=O)N[C@H](C#N)C[C@@H]1CCNC1=O)C2(C)C)C(C)(C)C [Compound 8]
- IC50 (COVID-19 WT Mpro): > 30000 nM
- EC50 (SARS-CoV-2 replicon; [2]): 3110 nM

Compound: CC1(C)[C@@H]2[C@@H](C(=O)N[C@@H](C[C@@H]3CCNC3=O)C(=O)c3nc4ccccc4s3)N(C(=O)[C@@H]3CCCN3C(=O)C(F)(F)F)C[C@@H]21 [Compound 10]
- IC50 (COVID-19 WT Mpro): > 30000 nM
- EC50 (SARS-CoV-2 replicon; [2]): 22700 nM

Compound: CC1(C)[C@@H]2[C@@H](C(=O)N[C@@H](C[C@@H]3CCNC3=O)C(=O)c3nc4ccccc4s3)N(C(=O)[C@@H]3CCN3C(=O)C(F)(F)F)C[C@@H]21 [Compound 11]
- IC50 (COVID-19 WT Mpro): 11000 nM
- EC50 (SARS-CoV-2 replicon; [2]): 25500 nM

Compound: CC(C)(C)[C@H](NC(=O)[C@H](NC(=O)c1cnccn1)C1CCCCC1)C(=O)N1C[C@H]2[C@@H]([C@H]1C(=O)N[C@H](C#N)C[C@@H]1CCNC1=O)C2(C)C [Compound 14]
- IC50 (COVID-19 WT Mpro): > 30000 nM
- EC50 (SARS-CoV-2 replicon; [2]): > 30000 nM

Compound: CC(C)(C)[C@H](NC(=O)C(F)(F)F)C(=O)N1C[C@H]2[C@@H]([C@H]1C(=O)N[C@H](C#N)Cc1cncnc1)C2(C)C [Compound 15]
- IC50 (COVID-19 WT Mpro): > 30000 nM
- EC50 (SARS-CoV-2 replicon; [2]): > 30000 nM

Compound: CC(C)(C)[C@H](NS(=O)(=O)c1ccns1)C(=O)N1C[C@H]2[C@@H]([C@H]1C(=O)N[C@H](C#N)C[C@@H]1CCNC1=O)C2(C)C [Compound 122]
- EC50 (SARS-CoV-2 replicon; [2]): 47 nM
- EC50 (SARS-CoV-2 replicon): 62 nM
- EC50 [1, 3]: 147 nM

Compound: CC(C)(C)[C@H](NC(=S)NC1CC(F)(F)C1)C(=O)N1C[C@H]2[C@@H]([C@H]1C(=O)N[C@H](C#N)C[C@@H]1CCNC1=O)C2(C)C [Compound 123]
- EC50 (SARS-CoV-2 replicon; [2]): 790 nM
- EC50 [1, 3]: 700 nM

Compound: CC(C)(C)[C@H](NC(=S)NC1CCC1)C(=O)N1C[C@H]2[C@@H]([C@H]1C(=O)N[C@H](C#N)C[C@@H]1CCNC1=O)C2(C)C [Compound 124]
- EC50 (SARS-CoV-2 replicon; [2]): 500 nM
- EC50 [1, 3]: 801 nM

Compound: CC(C)(C)[C@H](NC(=S)NC1CCC1)C(=O)N1C[C@H]2[C@@H]([C@H]1C(=O)N[C@H](C#N)C[C@@H]1CCN(C(=O)C(F)(F)F)C1=O)C2(C)C [Compound 125]
- EC50 (SARS-CoV-2 replicon; [2]): 68 nM
- EC50 [1, 3]: 708 nM

Compound: CC1(NC(=S)N[C@H](C(=O)N2C[C@H]3[C@@H]([C@H]2C(=O)N[C@H](C#N)C[C@@H]2CCNC2=O)C3(C)C)C(C)(C)C)CC1 [Compound 126]
- EC50 (SARS-CoV-2 replicon; [2]): 24 nM
- EC50 [1, 3]: 193 nM

Compound: CNC(=O)N[C@H](C(=O)N1C[C@H](N(C)C)C[C@H]1C(=O)N[C@H](C#N)C[C@@H]1CCNC1=O)C(C)(C)C [Compound 128]
- EC50 (SARS-CoV-2 replicon; [2]): > 10000 nM
- EC50 [1, 3]: > 30000 nM

Compound: COC(=O)N[C@H](C(=O)N1C[C@H](N(C)C)C[C@H]1C(=O)N[C@H](C#N)C[C@@H]1CCNC1=O)C(C)(C)C [Compound 129]
- EC50 (SARS-CoV-2 replicon; [2]): 6870 nM
- EC50 [1, 3]: > 30000 nM

Compound: COc1ccccc1S(=O)(=O)N[C@H](C(=O)N1C[C@H]2[C@@H]([C@H]1C(=O)N[C@H](C#N)C[C@@H]1CCNC1=O)C2(C)C)C(C)(C)C [Compound 130]
- EC50 (SARS-CoV-2 replicon; [2]): 93 nM
- EC50 (SARS-CoV-2 replicon): 130 nM
- EC50 [1]: 1230 nM
- EC50 [1, 3]: 1090 nM

Compound: C=CCS(=O)(=O)N[C@H](C(=O)N1C[C@H]2[C@@H]([C@H]1C(=O)N[C@H](C#N)C[C@@H]1CCNC1=O)C2(C)C)C(C)(C)C [Compound 131]
- EC50 (SARS-CoV-2 replicon; [2]): 120 nM
- EC50 (SARS-CoV-2 replicon): 180 nM
- EC50 [1, 3]: 657 nM

Compound: CC(C)(C)[C@H](NS(=O)(=O)CC#N)C(=O)N1C[C@H]2[C@@H]([C@H]1C(=O)N[C@H](C#N)C[C@@H]1CCNC1=O)C2(C)C [Compound 132]
- EC50 (SARS-CoV-2 replicon; [2]): 64 nM
- EC50 (SARS-CoV-2 replicon): 75 nM
- EC50 [1]: 591 nM
- EC50 [1, 3]: 589 nM

Compound: CC(C)c1cc(C(C)C)c(S(=O)(=O)N[C@H](C(=O)N2C[C@H]3[C@@H]([C@H]2C(=O)N[C@H](C#N)C[C@@H]2CCNC2=O)C3(C)C)C(C)(C)C)c(C(C)C)c1 [Compound 134]
- EC50 (SARS-CoV-2 replicon; [2]): 7990 nM
- EC50 (SARS-CoV-2 replicon): > 10000 nM
- EC50 [1, 3]: > 30000 nM

Compound: CC(C)(C)[C@H](NS(=O)(=O)c1cc2c(s1)CCCC2)C(=O)N1C[C@H]2[C@@H]([C@H]1C(=O)N[C@H](C#N)C[C@@H]1CCNC1=O)C2(C)C [Compound 135]
- EC50 (SARS-CoV-2 replicon; [2]): 24 nM
- EC50 (SARS-CoV-2 replicon): 34 nM
- EC50 [1]: 67 nM
- EC50 [1, 3]: 64 nM

Compound: CC(C)(C)[C@H](NC(=O)CCC(F)(F)F)C(=O)N1C[C@H]2[C@@H]([C@H]1C(=O)N[C@H](C#N)C[C@@H]1CCNC1=O)C2(C)C [Compound 138]
- EC50 (SARS-CoV-2 replicon; [2]): 330 nM
- EC50 (SARS-CoV-2 replicon): 500 nM
- EC50 [1, 3]: 622 nM

Compound: C/C(=C\C(=O)N[C@H](C(=O)N1C[C@H]2[C@@H]([C@H]1C(=O)N[C@H](C#N)C[C@@H]1CCNC1=O)C2(C)C)C(C)(C)C)C(F)(F)F [Compound 140]
- EC50 (SARS-CoV-2 replicon; [2]): 350 nM
- EC50 (SARS-CoV-2 replicon): 410 nM
- EC50 [1, 3]: 619 nM

Compound: CC(C)(C)[C@H](NC(=O)C(F)(F)Cl)C(=O)N1C[C@H]2[C@@H]([C@H]1C(=O)N[C@H](C#N)C[C@@H]1CCNC1=O)C2(C)C [Compound 141]
- EC50 (SARS-CoV-2 replicon; [2]): 4.8 nM
- EC50 (SARS-CoV-2 replicon): 7 nM
- EC50 [1, 3]: 68 nM

Compound: Cc1c(C)c(C)c(S(=O)(=O)N[C@H](C(=O)N2C[C@H]3[C@@H]([C@H]2C(=O)N[C@H](C#N)C[C@@H]2CCNC2=O)C3(C)C)C(C)(C)C)c(C)c1C [Compound 142]
- EC50 (SARS-CoV-2 replicon; [2]): 160 nM
- EC50 (SARS-CoV-2 replicon): 170 nM
- EC50 [1, 3]: 283 nM

Compound: CC(C)(C)[C@H](NC(=O)C1(C(F)(F)F)CC1)C(=O)N1C[C@H]2[C@@H]([C@H]1C(=O)N[C@H](C#N)C[C@@H]1CCNC1=O)C2(C)C [Compound 151]
- EC50 (SARS-CoV-2 replicon; [2]): 85 nM
- EC50 [1, 3]: 207 nM

Compound: CC(C)(C)[C@H](NC(=O)C#Cc1ccc(C(F)(F)F)cc1)C(=O)N1C[C@H]2[C@@H]([C@H]1C(=O)N[C@H](C#N)C[C@@H]1CCNC1=O)C2(C)C [Compound 154]
- EC50 (SARS-CoV-2 replicon; [2]): 180 nM
- EC50 [1, 3]: 511 nM

Compound: COc1cc(/C=C/C(=O)N[C@H](C(=O)N2C[C@H]3[C@@H]([C@H]2C(=O)N[C@H](C#N)C[C@@H]2CCNC2=O)C3(C)C)C(C)(C)C)cc(OC)c1 [Compound 157]
- EC50 (SARS-CoV-2 replicon; [2]): 320 nM
- EC50 [1, 3]: 6940 nM

Compound: CC(C)(C)[C@H](NC(=O)C=C(C(F)(F)F)C(F)(F)F)C(=O)N1C[C@H]2[C@@H]([C@H]1C(=O)N[C@H](C#N)C[C@@H]1CCNC1=O)C2(C)C [Compound 158]
- EC50 (SARS-CoV-2 replicon; [2]): > 10000 nM
- EC50 [1, 3]: > 30000 nM

Compound: CC(C)(C)[C@H](NC(=O)C(F)C(F)(F)F)C(=O)N1C[C@H]2[C@@H]([C@H]1C(=O)N[C@H](C#N)C[C@@H]1CCNC1=O)C2(C)C (some centres unmarked) [Compound 159]
- EC50 (SARS-CoV-2 replicon; [2]): 30 nM
- EC50 [1, 3]: 134 nM

Compound: CC(C)=C(Cl)C(=O)N[C@H](C(=O)N1C[C@H]2[C@@H]([C@H]1C(=O)N[C@H](C#N)C[C@@H]1CCNC1=O)C2(C)C)C(C)(C)C [Compound 160]
- EC50 (SARS-CoV-2 replicon; [2]): 160 nM
- EC50 [1, 3]: 193 nM

Compound: CC(C)(C)[C@H](NC(=O)CC(F)(F)F)C(=O)N1C[C@H]2[C@@H]([C@H]1C(=O)N[C@H](C#N)C[C@@H]1CCNC1=O)C2(C)C [Compound 161]
- EC50 (SARS-CoV-2 replicon; [2]): 180 nM
- EC50 [1, 3]: 585 nM

Compound: CC(C)(C)[C@H](NC(=O)/C(F)=C(\F)C(F)(C(F)(F)F)C(F)(F)F)C(=O)N1C[C@H]2[C@@H]([C@H]1C(=O)N[C@H](C#N)C[C@@H]1CCNC1=O)C2(C)C [Compound 163]
- EC50 (SARS-CoV-2 replicon; [2]): > 10000 nM
- EC50 [1, 3]: 4630 nM

Compound: Cc1ccc(S(=O)(=O)N(C(=O)C(F)(F)F)[C@H](C(=O)N2C[C@H]3[C@@H]([C@H]2C(=O)N[C@H](C#N)C[C@@H]2CCNC2=O)C3(C)C)C(C)(C)C)cc1 [Compound 167]
- EC50 (SARS-CoV-2 replicon; [2]): 20 nM
- EC50 [1, 3]: 120 nM

Compound: Cc1cc(S(=O)(=O)N[C@H](C(=O)N2C[C@H]3[C@@H]([C@H]2C(=O)N[C@H](C#N)C[C@@H]2CCNC2=O)C3(C)C)C(C)(C)C)sc1Cl [Compound 168]
- EC50 (SARS-CoV-2 replicon; [2]): 41 nM
- EC50 [1, 3]: 116 nM

Compound: Cc1cc(S(=O)(=O)N[C@H](C(=O)N2C[C@H]3[C@@H]([C@H]2C(=O)N[C@H](C#N)C[C@@H]2CCNC2=O)C3(C)C)C(C)(C)C)sc1C [Compound 169]
- EC50 (SARS-CoV-2 replicon; [2]): 37 nM
- EC50 [1, 3]: 163 nM

Compound: CCc1ccc(S(=O)(=O)N[C@H](C(=O)N2C[C@H]3[C@@H]([C@H]2C(=O)N[C@H](C#N)C[C@@H]2CCNC2=O)C3(C)C)C(C)(C)C)s1 [Compound 170]
- EC50 (SARS-CoV-2 replicon; [2]): 38 nM
- EC50 [1, 3]: 140 nM
